# Test results as given in patent publication US10399974B2, “N2-phenyl-pyrido[3,4-D]pyrimidine-2, 8-diamine derivatives and their use as Mps1 inhibitors” (Cancer Research Technology Limited, priority 2014, dated 2019).
# pIC50: −log10 of the molar value.
# Molecular target: full length MPS1 (Homo sapiens (Human), UniProt P33981)
# Assay: Measurement of Inhibition of MPS1 Kinase
# Type: biochemical
# Conditions: not given
# Experimental: Measurement of Inhibition of MPS1 Kinase
# (5 μM), ATP (10 μM), either DMSO (1% v/v) or the test compound (in the range 0.25 nM-100 μM in 1% DMSO) and assay buffer (50 mM HEPES (pH 7.0), 0.02% NaN3, 0.01% BSA, 0.1 mM Orthovandate, […], 1 μM DTT, Roche protease inhibitor). The reaction was carried out for 60 min at room temperature and stopped by the addition of buffer (10 μl) containing 20 mM EDTA, 0.05% (v/v) Brij-35, in 0.1M HEPES-buffered saline (Free acid, Sigma, UK). The plate was read on a Caliper EZ reader II (Caliper Life Sciences).
# The reader provides a Software package (‘Reviewer’) which converts the peak heights into % conversion by measuring both product and substrate peak and also allows selection of control well which represent 0% and 100% inhibition, respectively. The % inhibition of the compounds is calculated relative to the means of selected control wells. IC50s are determined by testing the compounds at a range of concentrations from 0.25 nM-100 μM. The % inhibitions at each concentration are then fitted to a 4 parameter logistic fit: y=(a+((b−a)/(1+((c/x^d)))) where a=asym min, b=asym max, c=IC50 and d=hill coefficient
# Sequence of full length MPS1 (P33981 whole entry): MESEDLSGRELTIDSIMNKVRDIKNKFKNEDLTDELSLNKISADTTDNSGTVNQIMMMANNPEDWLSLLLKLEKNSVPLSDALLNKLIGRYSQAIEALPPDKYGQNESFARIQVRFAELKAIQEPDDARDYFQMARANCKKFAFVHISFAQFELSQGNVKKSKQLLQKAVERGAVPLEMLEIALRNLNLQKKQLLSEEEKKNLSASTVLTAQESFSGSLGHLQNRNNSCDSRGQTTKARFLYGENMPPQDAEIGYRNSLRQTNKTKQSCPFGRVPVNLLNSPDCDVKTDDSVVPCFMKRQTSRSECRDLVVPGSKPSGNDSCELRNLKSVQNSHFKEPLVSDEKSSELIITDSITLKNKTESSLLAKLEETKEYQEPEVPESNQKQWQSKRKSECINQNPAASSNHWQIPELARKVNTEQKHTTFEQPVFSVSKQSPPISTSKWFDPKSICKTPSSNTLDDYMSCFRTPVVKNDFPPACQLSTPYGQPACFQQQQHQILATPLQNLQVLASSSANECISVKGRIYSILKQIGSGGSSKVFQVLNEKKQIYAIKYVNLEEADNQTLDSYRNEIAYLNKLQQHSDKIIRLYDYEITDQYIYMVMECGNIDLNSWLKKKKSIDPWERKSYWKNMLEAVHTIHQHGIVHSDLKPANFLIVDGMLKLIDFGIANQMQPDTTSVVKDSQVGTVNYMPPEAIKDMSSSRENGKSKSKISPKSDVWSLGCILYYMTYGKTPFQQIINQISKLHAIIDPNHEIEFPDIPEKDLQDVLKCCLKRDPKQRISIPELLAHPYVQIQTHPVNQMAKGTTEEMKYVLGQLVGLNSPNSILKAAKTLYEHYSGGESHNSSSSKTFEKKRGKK
row,SMILES,pIC50
1,"CCOc1cc(-c2nncn2C)ccc1Nc1ncc2cc(C)nc(N3CC(C)(C)C3)c2n1 [Example 29, 8-(3,3-dimethylazetidin-1-yl)-N-(2-ethoxy-4-(4-methyl-4H-1,2,4-triazol-3-yl)phenyl)-6-methylpyrido[3,4-d]pyrimidin-2-amine]",8.70

# Same assay, conditions: full length MPS1 12.5 nM or 3 nM, H236 peptide 5 μM, ATP 10 μM, 60 min at room temperature, Caliper EZ reader II; read-out: MPS1 IC50
row,SMILES,pIC50
1,"CCOc1cc(-c2nncn2C)ccc1Nc1ncc2cc(C)nc(N3CCC3(C)C)c2n1 [Example 42, 8-(2,2-dimethylazetidin-1-yl)-N-(2-ethoxy-4-(4-methyl-4H-1,2,4-triazol-3-yl)phenyl)-6-methylpyrido[3,4-d]pyrimidin-2-amine]",8.00
2,"CCOc1cc(-c2nncn2C)ccc1Nc1ncc2cc(C)nc(N3CC4CC4C3)c2n1 (centres unmarked) [Example 50, 8-(3-azabicyclo[3.1.0]hexan-3-yl)-N-(2-ethoxy-4-(4-methyl-4H-1,2,4-triazol-3-yl)phenyl)-6-methylpyrido[3,4-d]pyrimidin-2-amine]",8.70
3,"CCOc1cc(-c2nncn2C)ccc1Nc1ncc2cc(C)nc(N3CCC(O)CC3)c2n1 [Example 52, 1-(2-(2-ethoxy-4-(4-methyl-4H-1,2,4-triazol-3-yl)phenylamino)-6-methylpyrido[3,4-d]pyrimidin-8-yl)piperidin-4-ol]",8.70
4,"CCOc1cc(-c2nncn2C)ccc1Nc1ncc2cc(C)nc(N[C@H](C)C(C)(C)C)c2n1 [Example 53, (R)-N8-(3,3-dimethylbutan-2-yl)-N2-(2-ethoxy-4-(4-methyl-4H-1,2,4-triazol-3-yl)phenyl)-6-methylpyrido[3,4-d]pyrimidine-2,8-diamine]",8.30
5,"CCOc1cc(-c2nncn2C)ccc1Nc1ncc2cc(C)nc(N[C@@H](C)C(C)(C)C)c2n1 [Example 54, (S)-N8-(3,3-dimethylbutan-2-yl)-N2-(2-ethoxy-4-(4-methyl-4H-1,2,4-triazol-3-yl)phenyl)-6-methylpyrido[3,4-d]pyrimidine-2,8-diamine]",8.40
6,"CCOc1cc(-c2nncn2C)ccc1Nc1ncc2cc(C)nc(NC3CN(C)C3)c2n1 [Example 58, N2-(2-ethoxy-4-(4-methyl-4H-1,2,4-triazol-3-yl)phenyl)-6-methyl-N8-(1-methylazetidin-3-yl)pyrido[3,4-d]pyrimidine-2,8-diamine]",6.29
7,"CCOc1cc(-c2nncn2C)ccc1Nc1ncc2cc(C)nc(N3CC(CC)(OC)C3)c2n1 [Example 60, N-(2-ethoxy-4-(4-methyl-4H-1,2,4-triazol-3-yl)phenyl)-8-(3-ethyl-3-methoxyazetidin-1-yl)-6-methylpyrido[3,4-d]pyrimidin-2-amine]",8.52
8,"CCOc1cc(-c2nncn2C)ccc1Nc1ncc2cc(C)nc(N3CC(C)(OCC)C3)c2n1 [Example 61, 8-(3-ethoxy-3-methylazetidin-1-yl)-N-(2-ethoxy-4-(4-methyl-4H-1,2,4-triazol-3-yl)phenyl)-6-methylpyrido[3,4-d]pyrimidin-2-amine]",8.40

# More lines, now with the values ahead:
row,pIC50,SMILES
1,7.80,"Cc1cc2cnc(Nc3ccc(-c4nncn4C)cc3OC(F)F)nc2c(N2CC(C)(C)C2)n1 [Example 62, N-(2-(difluoromethoxy)-4-(4-methyl-4H-1,2,4-triazol-3-yl)phenyl)-8-(3,3-dimethylazetidin-1-yl)-6-methylpyrido[3,4-d]pyrimidin-2-amine]"
2,8.10,"CCOc1cc(-c2nncn2C)ccc1Nc1ncc2cc(C)nc(NCC3(O)CC3)c2n1 [Example 31, 1-(((2-((2-ethoxy-4-(4-methyl-4H-1,2,4-triazol-3-yl)phenyl)amino)-6-methylpyrido[3,4-d]pyrimidin-8-yl)amino)methyl)cyclopropanol]"
3,8.22,"CCOc1cc(-c2nncn2C)ccc1Nc1ncc2cc(C)nc(N3CC(N(C)C)C3)c2n1 [Example 51, 8-(3-(dimethylamino)azetidin-1-yl)-N-(2-ethoxy-4-(4-methyl-4H-1,2,4-triazol-3-yl)phenyl)-6-methylpyrido[3,4-d]pyrimidin-2-amine]"
4,8.22,"CCOc1cc(-c2nncn2C)ccc1Nc1ncc2cc(C)nc(N3CCCC3)c2n1 [Example 56, N-(2-ethoxy-4-(4-methyl-4H-1,2,4-triazol-3-yl)phenyl)-6-methyl-8-(pyrrolidin-1-yl)pyrido[3,4-d]pyrimidin-2-amine]"
5,8.30,"CCOc1cc(-c2nncn2C)ccc1Nc1ncc2cc(C)nc(N3CC(C(F)(F)F)C3)c2n1 [Example 40, N-(2-ethoxy-4-(4-methyl-4H-1,2,4-triazol-3-yl)phenyl)-6-methyl-8-(3-(trifluoromethyl)azetidin-1-yl)pyrido[3,4-d]pyrimidin-2-amine]"
6,8.40,"CCOc1cc(-c2nncn2C)ccc1Nc1ncc2cc(C)nc(N3CC4(CCC4)C3)c2n1 [Example 55, N-(2-ethoxy-4-(4-methyl-4H-1,2,4-triazol-3-yl)phenyl)-6-methyl-8-(2-azaspiro[3.3]heptan-2-yl)pyrido[3,4-d]pyrimidin-2-amine]"
7,8.40,"CCOc1cc(-c2nncn2C)ccc1Nc1ncc2cc(C)nc(NCC3(OC)CCC3)c2n1 [Example 59, N2-(2-ethoxy-4-(4-methyl-4H-1,2,4-triazol-3-yl)phenyl)-N8-((1-methoxycyclobutyl)methyl)-6-methylpyrido[3,4-d]pyrimidine-2,8-diamine]"
8,8.52,"COc1cc(-c2cnc(C)n2C)ccc1Nc1ncc2cc(C)nc(N3CCC(C#N)CC3)c2n1 [Example 34, 1-(2-((4-(1,2-dimethyl-1H-imidazol-5-yl)-2-methoxyphenyl)amino)-6-methylpyrido[3,4-d]pyrimidin-8-yl)piperidine-4-carbonitrile]"
9,8.52,"CCOc1cc(-c2nncn2C)ccc1Nc1ncc2cc(C)nc(N3CCC(C)(O)C3)c2n1 (centres unmarked) [Example 37, 1-(2-((2-ethoxy-4-(4-methyl-4H-1,2,4-triazol-3-yl)phenyl)amino)-6-methylpyrido[3,4-d]pyrimidin-8-yl)-3-methylpyrrolidin-3-ol]"
10,8.52,"CCOc1cc(-c2nncn2C)ccc1Nc1ncc2cc(C)nc(N3CCC(OC)C3)c2n1 (centres unmarked) [Example 39, N-(2-ethoxy-4-(4-methyl-4H-1,2,4-triazol-3-yl)phenyl)-8-(3-methoxypyrrolidin-1-yl)-6-methylpyrido[3,4-d]pyrimidin-2-amine]"
11,8.52,"CCOc1cc(-c2nncn2C)ccc1Nc1ncc2cc(C)nc(N3CCC(OC)CC3)c2n1 [Example 46, N-(2-ethoxy-4-(4-methyl-4H-1,2,4-triazol-3-yl)phenyl)-8-(4-methoxypiperidin-1-yl)-6-methylpyrido[3,4-d]pyrimidin-2-amine]"
12,8.52,"CCOc1cc(-c2nncn2C)ccc1Nc1ncc2cc(C)nc(NCC3COC3)c2n1 [Example 57, N2-(2-ethoxy-4-(4-methyl-4H-1,2,4-triazol-3-yl)phenyl)-6-methyl-N8-(oxetan-3-ylmethyl)pyrido[3,4-d]pyrimidine-2,8-diamine]"
13,8.70,"CCOc1cc(-c2nncn2C)ccc1Nc1ncc2cc(C)nc(N3CC(C)(OC)C3)c2n1 [Example 30, N-(2-ethoxy-4-(4-methyl-4H-1,2,4-triazol-3-yl)phenyl)-8-(3-methoxy-3-methylazetidin-1-yl)-6-methylpyrido[3,4-d]pyrimidin-2-amine]"
14,8.70,"CCOc1cc(-c2nncn2C)ccc1Nc1ncc2cc(C)nc(N3CC4(CCO4)C3)c2n1 [Example 36, N-(2-ethoxy-4-(4-methyl-4H-1,2,4-triazol-3-yl)phenyl)-6-methyl-8-(1-oxa-6-azaspiro[3.3]heptan-6-yl)pyrido[3,4-d]pyrimidin-2-amine]"
